The values below come from patent US10414754B2, “Indolizine compounds, a process for their preparation and pharmaceutical compositions containing them” (LES LABORATOIRES SERVIER, priority 2013, dated 2019).

The IC50 is the concentration needed to halve the response being measured.

Counter-ions that a name gives are not always drawn.

Test [1] concerns the target T1, Bcl-2 protein (histag-Bcl-2, UniProtKB P10415) (Homo sapiens, UniProt P10415).
T1 construct: His tag
Kind of test: Inhibition of Bcl-2 by the fluorescence polarisation technique. The note with it: fluorescence polarisation, 2 hours incubation; read-out: IC50 (nM) Bcl-2 FP. The test is classed as binding. As for the experimental part: The fluorescence polarisation tests were carried out on microplates (384 wells). The Bcl-2 protein, labelled (histag-Bcl-2 such that Bcl-2 corresponds to the UniProtKB® primary accession number: P10415), at a final concentration of 2.50×10^−8 M, is mixed with a fluorescent peptide (Fluorescein-[…]), at a final concentration of 1.00×10^−8M in a buffer solution (Hepes 10 mM, NaCl 150 mM, Tween20 0.05%, pH 7.4), in the presence or absence of increasing concentrations of test compounds. After incubation for 2 hours, the fluorescence polarisation is measured.
Background: Fluorescence polarisation rises when a labelled molecule tumbles more slowly, as on binding a larger partner.

Test [2] relates to RS4;11 leukaemia tumour line. Put plainly: In vitro cytotoxicity (MTT) on RS4;11. The format is cell-based. The note with it: Homo sapiens; RS4;11 cells, 48 hours exposure. As to the method: The cytotoxicity studies were carried out on the RS4;11 leukaemia tumour line.
The cells are distributed onto microplates and exposed to the test compounds for 48 hours.
The cell viability is then quantified by a colorimetric assay, the Microculture Tetrazolium Assay (Cancer Res., 1987, 47, 939-942).

T1 sequence (P10415 whole entry): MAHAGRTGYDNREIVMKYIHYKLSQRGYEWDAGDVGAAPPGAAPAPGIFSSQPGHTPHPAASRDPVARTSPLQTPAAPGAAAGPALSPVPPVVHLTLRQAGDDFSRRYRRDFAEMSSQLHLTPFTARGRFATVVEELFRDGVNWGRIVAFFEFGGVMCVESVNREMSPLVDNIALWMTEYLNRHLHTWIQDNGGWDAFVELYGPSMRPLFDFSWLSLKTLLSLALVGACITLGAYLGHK

Regarding `C[C@@H]1Cc2ccccc2CN1C(=O)c1cc2c(cc1-c1cc(C(=O)N(c3ccc(O)cc3)c3ccc4c(ccn4C)c3)c3n1CCCC3)OCO2` [Example 1, N-(4-Hydroxyphenyl)-3-(6-{[(3R)-3-methyl-3,4-dihydroisoquinolin-2(1H)-yl]carbonyl}-1,3-benzodioxol-5-yl)-N-(1-methyl-1H-indol-5-yl)-5,6,7,8-tetrahydro-indolizine-1-carboxamide], the IC50 in test [1] was determined as 17.9 nM; in test [2] it was 11.3 nM.

Turning to `C[C@@H]1Cc2ccccc2CN1C(=O)c1cc2c(cc1-c1cc(C(=O)N(c3ccc(O)cc3)c3ccc4c(ccn4CCN4CCOCC4)c3)c3n1CCCC3)OCO2` [Example 2, N-(4-Hydroxyphenyl)-3-(6-{[(3R)-3-methyl-3,4-dihydroisoquinolin-2(1H)-yl]carbonyl}-1,3-benzodioxol-5-yl)-N-{1-[2-(morpholin-4-yl)ethyl]-1H-indol-5-yl}-5,6,7,8-tetrahydroindolizine-1-carboxamide hydrochloride], the IC50 in test [1] came to 17 nM; in test [2], 36 nM. In the case of `C[C@@H]1Cc2ccccc2CN1C(=O)c1ccc(Cl)cc1-c1cc(C(=O)N(c2ccc(O)cc2)c2ccc3c(ccn3C)c2)c2n1CCNC2` [Example 3, 6-(5-Chloro-2-{[(3R)-3-methyl-3,4-dihydroisoquinolin-2(1H)-yl]-carbonyl}phenyl)-N-(4-hydroxyphenyl)-N-(1-methyl-1H-indol-5-yl)-1,2,34-tetrahydropyrrolo[1,2-a]pyrazine-8-carboxamide hydrochloride], the IC50 in test [1] was 33.6 nM; in test [2], 66.5 nM. As for `O=C(c1ccc(Cl)cc1-c1cc(C(=O)N(c2ccc(O)cc2)c2ccc3c(ccn3CCN3CCOCC3)c2)c2n1CCCC2)N1CCc2ccccc2C1` [Example 4, 3-[5-Chloro-2-(3,4-dihydroisoquinolin-2(1H)-ylcarbonyl)phenyl]-N-(4-hydroxyphenyl)-N-{1-[2-(morpholin-4-yl)ethyl]-1H-indol-5-yl}-5,6,7,8-tetrahydro-indolizine-1-carboxamide], the figures for the IC50 in test [1] and in test [2] were 56.4 nM and 251 nM, respectively. Consider `O=C(c1ccc(Cl)cc1-c1cc(C(=O)N(c2ccc(O)cc2)c2ccc3c(c2)CCN3CCN2CCOCC2)c2n1CCCC2)N1CCc2ccccc2C1` [Example 5, 3-[5-Chloro-2-(3,4-dihydroisoquinolin-2(1H)-ylcarbonyl)phenyl]-N-(4-hydroxyphenyl)-N-{1-[2-(morpholin-4-yl)ethyl]-2,3-dihydro-1H-indol-5-yl}-5,6,7,8-tetrahydroindolizine-1-carboxamide], for which the concentration for half-maximal inhibition (IC50) in test [1] came to 55.9 nM; in test [2], 416 nM. In the case of `C[C@@H]1Cc2ccccc2CN1C(=O)c1cc2c(cc1-c1cc(C(=O)N(c3ccc(O)cc3)c3ccc4c(ccn4C)c3)c3n1CCN(C)C3)OCCO2` [Example 6, N-(4-Hydroxyphenyl)-2-methyl-6-(7-{[(3R)-3-methyl-3,4-dihydroiso-quinolin-2(1H)-yl]carbonyl}-2,3-dihydro-1,4-benzodioxin-6-yl)-N-(1-methyl-1H-indol-5-yl)-1,2,3,4-tetrahydropyrrolo[1,2-a]pyrazine-8-carboxamide hydrochloride], the IC50 in test [1] stood at 60.3 nM; in test [2], 161 nM.

As for `C[C@@H]1Cc2ccccc2CN1C(=O)c1ccc(Cl)cc1-c1cc(C(=O)N(c2ccc(O)cc2)c2ccc3c(ccn3C)c2)c2n1CCN(C)C2` [Example 7, 6-(5-Chloro-2-{[(3R)-3-methyl-3,4-dihydroisoquinolin-2(1H)-yl]-carbonyl}phenyl]-N-(4-hydroxyphenyl)-2-methyl-N-(1-methyl-1H-indol-5-yl)-1,2,3,4-tetrahydropyrrolo[1,2-a]pyrazine-8-carboxamide], the IC50 in test [1] is 46.4 nM; in test [2] it was 108 nM. Consider `C[C@@H]1Cc2ccccc2CN1C(=O)c1ccc(Cl)cc1-c1cc(C(=O)N(c2ccc(O)cc2)c2ccc3c(ccn3CCN3CCOCC3)c2)c2ccccn12` [Example 8, 3-(5-Chloro-2-{[(3R)-3-methyl-3,4-dihydroisoquinolin-2(1H)-yl]-carbonyl}phenyl)-N-(4-hydroxyphenyl)-N-{1-[2-(morpholin-4-yl)ethyl]-1H-indol-5-yl}indolizine-1-carboxamide hydrochloride], for which the IC50 in test [1] is 24.5 nM; in test [2], 20.5 nM.

Consider `C[C@@H]1Cc2ccccc2CN1C(=O)c1ccc(F)cc1-c1cc(C(=O)N(c2ccc(O)cc2)c2ccc(F)cc2)c2n1CCNC2` [Example 9, 6-(5-Fluoro-2-{[(3R)-3-methyl-3,4-dihydroisoquinolin-2(1H)-yl]carbonyl}-phenyl)-N-(4-fluorophenyl)-N-(4-hydroxyphenyl)-1,2,3,4-tetrahydropyrrolo[1,2-a]-pyrazine-8-carboxamide hydrochloride], for which the IC50 in test [1] worked out at 40.6 nM; in test [2] it was 780 nM. Consider `Cc1ccc(N(C(=O)c2cc(-c3cc(F)ccc3C(=O)N3Cc4ccccc4C[C@H]3C)n3c2CNCC3)c2ccc(O)cc2)cc1F` [Example 10, 6-(5-Fluoro-2-{[(3R)-3-methyl-3,4-dihydroisoquinolin-2(1H)-yl]-carbonyl}phenyl)-N-(3-fluoro-4-methylphenyl)-N-(4-hydroxyphenyl)-1,2,3,4-tetrahydropyrrolo[1,2-a]pyrazine-8-carboxamide hydrochloride], for which the figures for the IC50 in test [1] and in test [2] were 24.7 nM and 439 nM, respectively.

Take `C[C@@H]1Cc2ccccc2CN1C(=O)c1cc2c(cc1-c1cc(C(=O)N(c3ccc(O)cc3)c3ccc4c(cnn4C)c3)c3n1CCNC3)OCO2` [Example 11, N-(4-Hydroxyphenyl)-6-(6-{[(3R)-3-methyl-3,4-dihydroisoquinolin-2(1,H)-yl]carbonyl}-1,3-benzodioxol-5-yl)-N-(1-methyl-1H-indazol-5-yl)-1,2,3,4-tetrahydropyrrolo[1,2-a]pyrazine-8-carboxamide hydrochloride]: the IC50 in test [1] is 10.9 nM; in test [2], 83.7 nM. As for `C[C@@H]1Cc2ccccc2CN1C(=O)c1ccc(Cl)cc1-c1cc(C(=O)N(c2ccc(O)cc2)c2ccc3c(cnn3C)c2)c2n1CCNC2` [Example 12, 6-(5-Chloro-2-{[(3R)-3-methyl-3,4-dihydroisoquinolin-2(1H)-yl]-carbonyl}phenyl)-N-(4-hydroxyphenyl)-N-(1-methyl-1H-indazol-5-yl)-1,2,3,4-tetrahydropyrrolo[1,2-a]pyrazine-8-carboxamide hydrochloride], the IC50 worked out at 10.4 nM in test [1] and 116 nM in test [2].

With `O=C(c1cc(-c2cc3c(cc2C(=O)N2Cc4ccccc4C[C@H]2CCN2CCOCC2)OCO3)n2c1CCCC2)N(c1ccccc1)c1ccc(O)cc1` [Example 13, N-(4-Hydroxyphenyl)-3-(6-{[(3S)-3-[2-(morpholin-4-yl)ethyl]-3,4-dihydroisoquinolin-2(1H)-yl]carbonyl}-1,3-benzodioxol-5-yl)-N-phenyl-5,6,7,8-tetrahydroindolizine-1-carboxamide hydrochloride], the IC50 in test [1] came to 5.8 nM; in test [2], 33.6 nM. In the case of `Cn1ncc2cc(N(C(=O)c3cc(-c4cc5c(cc4C(=O)N4Cc6ccccc6C[C@H]4CCN4CCOCC4)OCO5)n4c3CCCC4)c3ccc(O)cc3)ccc21` [Example 14, N-(4-Hydroxyphenyl)-N-(1-methyl-1H-indazol-5-yl)-3-(6-{[(3S)-3-[2-(morpholin-4-yl)ethyl]-3,4-dihydroisoquinolin-2(1H)-yl]carbonyl}-1,3-benzodioxol-5-yl)-5,6,7,8-tetrahydroindolizine-1-carboxamide hydrochloride], the values for the IC50 in test [1] and in test [2] were 3.7 nM and 7.6 nM, respectively. Consider `C[C@@H]1Cc2ccccc2CN1C(=O)c1cc2c(cc1-c1cc(C(=O)N(c3ccccc3)c3ccc(O)cc3)c3n1CCC(N)C3)OCO2` (stereo partly drawn) [Example 15, 7-Amino-N-(4-hydroxyphenyl)-3-(6-{[(3R)-3-methyl-3,4-dihydroiso-quinolin-2(1H)-yl]carbonyl}-1,3-benzodioxol-5-yl)-N-phenyl-5,6,7,8-tetrahydro-indolizine-1-carboxamide hydrochloride], for which the IC50 in test [1] worked out at 5.7 nM; in test [2], 166 nM. As for `C[C@@H]1Cc2ccccc2CN1C(=O)c1cc2c(cc1-c1cc(C(=O)N(c3ccc(O)cc3)c3cc[n+](C)cc3)c3ccccn13)OCO2` [Example 71, 4-[(4-Hydroxyphenyl){[3-(6-{[(3R)-3-methyl-3,4-dihydroisoquinolin-2(1H)-yl]carbonyl}-1,3-benzodioxol-5-yl)indolizin-1-yl]carbonyl}amino]-1-methyl-pyridinium chloride], the IC50 in test [1] was determined as 49 nM. With `CN(C(=O)c1cc(-c2cc3c(cc2C(=O)N2CCc4ccccc4C2)OCO3)n2c1CNCC2)c1ccc(O)cc1` [Example 84, 6-[6-(3,4-Dihydroisoquinolin-2(1H)-ylcarbonyl)-1,3-benzodioxol-5-yl]-N-(4-hydroxyphenyl)-N-methyl-1,2,3,4-tetrahydropyrrolo[1,2-a]pyrazine-8-carboxamide], the IC50 in test [1] is 525 nM.

Take `CCN(C(=O)c1cc(-c2cc3c(cc2C(=O)N2CCc4ccccc4C2)OCO3)n2c1CNCC2)c1ccc(O)cc1` [Example 85, 6-[6-(3,4-Dihydroisoquinolin-2(1H)-ylcarbonyl)-1,3-benzodioxol-5-yl]-N-ethyl-N-(4-hydroxyphenyl)-1,2,3,4-tetrahydropyrrolo[1,2-a]pyrazine-8-carboxamide]: the IC50 in test [1] stood at 243 nM.
